Test results taken from patent US7419780B2, “Methods and assays for screening protein targets” (The Trustees of Columbia University in the City of New York, priority 2000, dated 2008).

Test system: S. cerevisiae strain FY250

SMILES: C[C@@H]1C[C@H]2[C@@H]3CCC4=CC(=O)C=C[C@]4(C)[C@@]3(F)[C@@H](O)C[C@]2(C)[C@@]1(O)C(=O)CO [DEX, Dexamethasone]
- toxicity (impaired cell growth on plate): neither DEX nor GR are toxic
